Measured values from patent US20100093715A1, “Plant productivity enhancement by combining chemical agents with transgenic modifications” (BASF SE, priority 2007, published 2010).

Experiments:
[1] = system: J553x(HIIIAxA188) null and transgenic corn; assay: Fipronil/Pyraclostrobin study, initial trial: seed treatment, greenhouse growth, LemnaTec Scanalyzer imaging and harvest; format: in vivo, maize (Zea Mays L.); conditions: for Internode 1 length / Internode 2 length / Internode 3 length: seed treatment; for Fresh Weight: hand-collected
Description: (§1) J553x(HIIIAxA188) null and transgenic corn seeds of the T2 generation were treated with deionized water (Blank), 200 grams fipronil, 10 grams pyraclostrobin (F500), and 200 grams fipronil+10 grams pyraclostrobin; all formulation rates were grams/100 kg seed. Every formulation was applied to approximately 80 seeds. The formulation was pipetted into a 125 ml flask along the sides and bottom of the flask before adding the seeds and shaking the flask for 30 seconds. The coated seeds were then removed from the flask and placed in a plastic dish for drying.
(§2) Seventy-five 3-L pots per treatment (Blank, fipronil, pyraclostrobin, and fipronil+pyraclostrobin) were filled with potting media, labeled with colored stakes, and given a unique barcode. One seed per pot was planted at a depth of approximately 2 cm and covered with media. The media was lightly watered to imbibe the seeds, while allowing for ample oxygen exchange and so that the chemical coatings on the seeds remained intact. After planting, the pots were randomly distributed into three replicate blocks (1 bench=1 block), each with 25 plants of every treatment.
(§3) The plants were maintained in a greenhouse under optimal, well-watered conditions (80-90% field capacity) upon emergence. Supplemental nutrients were administered every third day during watering. The greenhouse temperature was maintained at 30° C., relative humidity at 75%, and light at 350 μmol m^−2s^−1, in a 15-hour day/9-hour night photoperiod. Supplemental lighting was provided using metal-halide lights. Once per week, the pots were randomly mixed within each block.
(§4) On day 21, the plants were imaged to collect the phenotypic data as described in the Imaging Procedures section. Leaves were sampled for transgene copy number on day 25 to identify the null and transgenic plants. On day 28, the plants were imaged and then harvested to collect fresh weight. The presence of the transgene was determined by the Taqman molecular analysis technique. Differences in the phenotypic data collected during the imaging process and in fresh weight among the four treatments and between the null and transgenic plants were assessed. The chemical by transgenic interactions were determined.
(§5) Imaging of the plants was facilitated using a LemnaTec Scanalyzer (Würselen, Germany), which includes a conveyor belt, an imaging station, a watering station, and computers for collecting, processing, and storing the image data. The cameras have a resolution of 1280×960 pixels and operate in 24-bit color.
(§6) The plants were manually transferred by block onto the conveyor system of the scanalyzer. Each plant was then moved through the imager automatically. At the imaging station, cameras collected the top view image and two side view images. The side view images were the transverse view and the view parallel with the plane of the plant.
(§7) As described in the formula (see Appendix A), the scanalyzer calculates plant volume as a number of pixels. To assign a physiologically meaningful value to the volume measurements, a separate experiment was conducted. The plants were scanned with the scanalyzer then harvested. The plant material was placed into a graduated cylinder filled to a known volume with water. The difference between the water plus plant material and water alone provided a known plant volume in mL.
(§8) Using the LemnaTec scanalyzer, we collected stem width; stalk volume; top, transverse, and parallel view plant areas; top, transverse, and parallel view green and yellow pixel counts; stem length; leaf angles and internode lengths through leaf 5; plant width and height; total leaf length; and total plant length.
(§9) Fresh Weight—A measurement of the fresh weight of the plant in grams. Hand-collected fresh weight is measured by harvesting the plant and weighing it on a balance. LemnaTec fresh weight is calculated by the scanalyzer based on plant volume and plant age. The zoom angles of the camera lenses are normalized using a calibration table. […]

[2] = system: J553x(HIIIAxA188) null and transgenic corn; assay: Fipronil/Pyraclostrobin study, second trial: seed treatment, greenhouse growth, LemnaTec Scanalyzer imaging; format: in vivo, maize (Zea Mays L.)
Description: as §1, §2, §3, §4, §5, §6, §7, §8, §9

Compound: COC(=O)N(OC)c1ccccc1COc1ccn(-c2ccc(Cl)cc2)n1 [F500, pyraclostrobin]
- # Fully Expanded Leaves ([1]; Avg): 3.0
- Leaf Angle 0 ([1]; Avg): 46.6 degrees
- Leaf Angle 1 ([1]; Avg): 37.4 degrees
- Plant Volume ([1]; Avg): 6.43E+06 pixels
- Stem Length ([1]; Avg): 104.4 cm
- stalk area from the transverse view, Pixel Count ([1]; Avg): 4724 pixels
- Internode 1 length ([1]; Avg of null and transgenic): 34.3 cm
- Internode 2 length ([1]; Avg of null and transgenic): 38.4 cm
- Internode 3 length ([1]; Avg of null and transgenic): 40.7 cm
- # Fully Expanded Leaves ([1]; Null plants): 2.9
- Leaf Angle 0 ([1]; Null plants): 39.2 degrees
- Leaf Angle 1 ([1]; Null plants): 36.5 degrees
- Plant Volume ([1]; Null plants): 6.18E+06 pixels
- Stem Length ([1]; Null plants): 97.2 cm
- stalk area from the transverse view, Pixel Count ([1]; Null plants): 4725 pixels
- Internode 1 length ([1]; Null plants): 32.5 cm
- Internode 2 length ([1]; Null plants): 36.0 cm
- Internode 3 length ([1]; Null plants): 38.8 cm
- Internode 1 length ([1]; Trans (transgenic) plants): 35.9 cm
- Internode 2 length ([1]; Trans (transgenic) plants): 40.4 cm
- Internode 3 length ([1]; Trans (transgenic) plants): 42.1 cm
- # Fully Expanded Leaves ([1]; Trans plants): 3.1
- Leaf Angle 0 ([1]; Trans plants): 52.5 degrees
- Leaf Angle 1 ([1]; Trans plants): 38.2 degrees
- Plant Volume ([1]; Trans plants): 6.63E+06 pixels
- Stem Length ([1]; Trans plants): 110.2 cm
- stalk area from the transverse view, Pixel Count ([1]; Trans plants): 4723 pixels
- Fresh Weight ([1]; Avg): 155.3 grams
- Fresh Weight ([1]; Null plants): 155.7 grams
- Fresh Weight ([1]; Trans plants): 155.0 grams
- Dark Green Count ([1]; parallel view, Avg): 14884.7 pixels
- Medium Green Count ([1]; parallel view, Avg): 6153.1 pixels
- Plant Area ([1]; parallel view, Avg): 23089.7 pixels
- Yellow Count ([1]; parallel view, Avg): 2051.9 pixels
- Dark Green Count ([1]; parallel view, Null plants): 14727.7 pixels
- Medium Green Count ([1]; parallel view, Null plants): 5691.8 pixels
- Plant Area ([1]; parallel view, Null plants): 22426.2 pixels
- Yellow Count ([1]; parallel view, Null plants): 2006.6 pixels
- Dark Green Count ([1]; parallel view, Trans plants): 15010.4 pixels
- Medium Green Count ([1]; parallel view, Trans plants): 6522.1 pixels
- Plant Area ([1]; parallel view, Trans plants): 23620.6 pixels
- Yellow Count ([1]; parallel view, Trans plants): 2088.1 pixels
- Medium Green Count ([1]; top view, Avg): 18542 pixels
- Medium Green Count ([1]; top view, Null plants): 17893 pixels
- Medium Green Count ([1]; top view, Trans plants): 19062 pixels
- Medium Green Count ([1]; transverse view, Avg): 9584.5 pixels
- Yellow Count ([1]; transverse view, Avg): 4227.2 pixels
- Medium Green Count ([1]; transverse view, Null plants): 9303.7 pixels
- Yellow Count ([1]; transverse view, Null plants): 4081.7 pixels
- Medium Green Count ([1]; transverse view, Trans plants): 9809.2 pixels
- Yellow Count ([1]; transverse view, Trans plants): 4343.5 pixels
- Plant volume, significance of treatment [2]: significant at 99%
- dark green pixel count, significance of treatment [2]: significant at 99%
- Broad Side Drk Grn ([2]; Avg): 26984.96 pixels
- Broad Side Plnt Area ([2]; Avg): 38169.74 pixels
- Calc Fresh Weight ([2]; Avg): 105.47 g
- Narrow Side Drk Grn ([2]; Avg): 27393.61 pix
- Plant Volume ([2]; Avg): 10.47 M pixels
- Top Drk Grn ([2]; Avg): 59991.92 pixels
- Broad Side Drk Grn ([2]; Null plants): 26088.87 pixels
- Broad Side Plnt Area ([2]; Null plants): 36740.30 pixels
- Calc Fresh Weight ([2]; Null plants): 100.53 g
- Narrow Side Drk Grn ([2]; Null plants): 26394.93 pix
- Plant Volume ([2]; Null plants): 9.90 M pixels
- Top Drk Grn ([2]; Null plants): 57676.78 pixels
- Broad Side Drk Grn ([2]; Trans plants): 27881.04 pixels
- Broad Side Plnt Area ([2]; Trans plants): 39599.17 pixels
- Calc Fresh Weight ([2]; Trans plants): 110.41 g
- Narrow Side Drk Grn ([2]; Trans plants): 28392.28 pix
- Plant Volume ([2]; Trans plants): 11.04 M pixels
- Top Drk Grn ([2]; Trans plants): 62307.07 pixels
- photosynthetic health (in words) ([2]; in general): enhanced
- plant size (in words) ([2]; in general): enhanced
